The results in this text go back to US20230277527A1, “ROR-GAMMA MODULATORS” (Escalier Biosciences B.V., priority 2016, published 2023).

RORγt, sequence (P51449 269-508): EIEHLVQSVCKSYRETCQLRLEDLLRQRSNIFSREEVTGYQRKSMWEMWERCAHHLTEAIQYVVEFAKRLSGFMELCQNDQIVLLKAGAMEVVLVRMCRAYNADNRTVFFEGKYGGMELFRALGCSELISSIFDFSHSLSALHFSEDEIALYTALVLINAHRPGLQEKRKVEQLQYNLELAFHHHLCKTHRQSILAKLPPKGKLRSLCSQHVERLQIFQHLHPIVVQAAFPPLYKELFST

The first assay deals with RORγt (Homo sapiens (Human), UniProt P51449). Nature of the assay: RORγt Gal fusion assay (Gal4 ligand binding reporter assay). Format: cell-based. To be noted: RORγt inverse agonists. On the procedure:
Human RORγ ligand binding assay was performed in 96-well format. The N-terminal DNA binding domains (DBD) of the native RORγ and RORγt receptors have been substituted with that of the yeast GAL4-DBD and RORγ is expressed constitutively in the cell line. Both agonist and inverse agonist activity can be detected. 10 mM compound stocks were diluted serially 1:3 with DMSO and further diluted with provided media to generate 10 titration points from 60 μM to 3 nM. These treatment conditions were added to the plates as 2× media in 100 μL volume. Each plate includes a positive control with 10 titration points as well as 6 negative control wells with vehicle only. Reporter cells were rapidly thawed and added to the plates in 100 μL volume. The plates were incubated for 24 hrs in a 37° C. humidified 5% CO2 incubator. Media was removed before the addition of room temperature Detection Substrate. After 5 minute incubation, the luminescence was quantified on a luminescence plate reader.
In general terms: A reporter such as luciferase makes a cellular process visible.
One may read the IC50 as the concentration needed to halve the response being measured. For `CCOC(=O)C1CN(Cc2ccncc2)CCN1Cc1ccc(-c2ccc(C(O)(C(F)(F)F)C(F)(F)F)cc2)cc1` (stereo not shown) [Compound 9, ethyl 1-((4′-(1,1,1,3,3,3-hexafluoro-2-hydroxypropan-2-yl)-[1,1′-biphenyl]-4-yl)methyl)-4-(pyridin-4-ylmethyl)piperazine-2-carboxylate], the IC50 is below 1000 nM.
Still for that read-out and setting: then `O=C(O)C1CN(Cc2ccc(-c3ccc(C(O)(C(F)(F)F)C(F)(F)F)cc3)cc2)CCN1Cc1ccncc1` (stereo not shown) [Compound 20, 4-((4′-(1,1,1,3,3,3-hexafluoro-2-hydroxypropan-2-yl)-[1,1′-biphenyl]-4-yl)methyl)-1-(pyridin-4-ylmethyl)piperazine-2-carboxylic acid], with above 10000 nM; and `CCOCCOC(=O)C[C@H]1CN(Cc2ccc(-c3ccc(C(O)(C(F)(F)F)C(F)(F)F)cc3)cc2)CCN1Cc1ccncc1` [Compound 51, 2-ethoxyethyl (S)-2-(4-((4′-(1,1,1,3,3,3-hexafluoro-2-hydroxypropan-2-yl)-[1,1′-biphenyl]-4-yl)methyl)-1-(pyridin-4-ylmethyl)piperazin-2-yl)acetate], with below 1000 nM.
`CCOC(=O)CC1CN(Cc2ccncc2)CCN1Cc1ccc(-c2ccc(C(O)(C(F)(F)F)C(F)(F)F)cc2)cc1` (stereo not shown) [Compound 10, ethyl 2-(1-((4′-(1,1,1,3,3,3-hexafluoro-2-hydroxypropan-2-yl)-[1,1′-biphenyl]-4-yl)methyl)-4-(pyridin-4-ylmethyl)piperazin-2-yl)acetate]: the IC50 is below 1000 nM.
On the same count and under the same terms, in the case of `O=C(CC1CN(Cc2ccc(-c3ccc(C(O)(C(F)(F)F)C(F)(F)F)cc3)cc2)CCN1Cc1ccncc1)OCCO` (stereo not shown) [Compound 31, 2-hydroxyethyl 2-(4-((4′-(1,1,1,3,3,3-hexafluoro-2-hydroxypropan-2-yl)-[1,1′-biphenyl]-4-yl)methyl)-1-(pyridin-4-ylmethyl)piperazin-2-yl)acetate] it was below 1000 nM.
Still for that read-out and setting: then `O=C(O)CC1CN(Cc2ccc(-c3ccc(C(O)(C(F)(F)F)C(F)(F)F)cc3)cc2)CCN1Cc1ccncc1` (stereo not shown) [Compound 21, 2-(4-((4′-(1,1,1,3,3,3-hexafluoro-2-hydroxypropan-2-yl)-[1,1′-biphenyl]-4-yl)methyl)-1-(pyridin-4-ylmethyl)piperazin-2-yl)acetic acid], with above 10000 nM.
Same read-out and setting: then `CCOC(=O)C1CN(Cc2ccc(-c3ccc(C(O)(C(F)(F)F)C(F)(F)F)cc3)cc2)CCN1Cc1ccncc1` (stereo not shown) [Compound 17, ethyl 4-((4′-(1,1,1,3,3,3-hexafluoro-2-hydroxypropan-2-yl)-[1,1′-biphenyl]-4-yl)methyl)-1-(pyridin-4-ylmethyl)piperazine-2-carboxylate], with below 1000 nM; and `CCOC(=O)CC1CN(Cc2ccc(-c3ccc(C(O)(C(F)(F)F)C(F)(F)F)cc3)cc2)CCN1Cc1ccncc1` (stereo not shown) [Compound 18, ethyl 2-(4-((4′-(1,1,1,3,3,3-hexafluoro-2-hydroxypropan-2-yl)-[1,1′-biphenyl]-4-yl)methyl)-1-(pyridin-4-ylmethyl)piperazin-2-yl)acetate], with below 1000 nM; and `CCOC(=O)C[C@@H]1CN(Cc2ccc(-c3ccc(C(O)(C(F)(F)F)C(F)(F)F)cc3)cc2)CCN1Cc1ccncc1` [Compound 49, ethyl (R)-2-(4-((4′-(1,1,1,3,3,3-hexafluoro-2-hydroxypropan-2-yl)-[1,1′-biphenyl]-4-yl)methyl)-1-(pyridin-4-ylmethyl)piperazin-2-yl)acetate], with below 1000 nM.
`CC(C)NC(=O)C1CN(Cc2ccncc2)CCN1Cc1ccc(-c2ccc(C(O)(C(F)(F)F)C(F)(F)F)cc2)cc1` (stereo not shown) [Compound 24, 1-((4′-(1,1,1,3,3,3-hexafluoro-2-hydroxypropan-2-yl)-[1,1′-biphenyl]-4-yl)methyl)-N-isopropyl-4-(pyridin-4-ylmethyl)piperazine-2-carboxamide] displayed an IC50 above 10000 nM.
The same measure, in the same setting: then `CCOCCOC(=O)CC1CN(Cc2ccc(-c3ccc(C(O)(C(F)(F)F)C(F)(F)F)cc3)cc2)CCN1Cc1ccncc1` (stereo not shown) [Compound 32, 2-ethoxyethyl 2-(4-((4′-(1,1,1,3,3,3-hexafluoro-2-hydroxypropan-2-yl)-[1,1′-biphenyl]-4-yl)methyl)-1-(pyridin-4-ylmethyl)piperazin-2-yl)acetate], with below 1000 nM; and `CCOC(=O)CC1CN(Cc2ccc(-c3ccc(C(O)(C(F)(F)F)C(F)(F)F)cc3)c(C)c2)CCN1Cc1ccncc1` (stereo not shown) [Compound 35, ethyl 2-(4-((4′-(1,1,1,3,3,3-hexafluoro-2-hydroxypropan-2-yl)-2-methyl-[1,1′-biphenyl]-4-yl)methyl)-1-(pyridin-4-ylmethyl)piperazin-2-yl)acetate], with below 1000 nM.
The same measure, in the same setting: then `CC(C)OC(=O)CC1CN(Cc2ccc(-c3ccc(C(O)(C(F)(F)F)C(F)(F)F)cc3)cc2)CCN1Cc1ccncc1` (stereo not shown) [Compound 30, isopropyl 2-(4-((4′-(1,1,1,3,3,3-hexafluoro-2-hydroxypropan-2-yl)-[1,1′-biphenyl]-4-yl)methyl)-1-(pyridin-4-ylmethyl)piperazin-2-yl)acetate], with below 1000 nM.

In another assay the test system is IMQ-induced psoriasis.
Experiment: not given
To be noted: topical pre-treatment daily for 5 days, 4 hours before IMQ.
In the case of `C[C@H]1C[C@H]2[C@@H]3CCC4=CC(=O)C=C[C@]4(C)[C@@]3(F)[C@@H](O)C[C@]2(C)[C@@]1(O)C(=O)CCl` [clobetasol], the “ear and back skin thickness” value is reported as “significantly decreased”; the histopathology scoring entry is reported as “significantly decreased”; the total psoriasis score result was “significantly decreased”.
